Measured values: patent US8673922B2, “Azaindazole compounds” (Bristol-Myers Squibb Company, priority 2010, dated 2014)

Legend:
Human CYP17 = target: T1, Human CYP17 (Homo sapiens, UniProt P05093); assay: CYP17 Total SPA Assay; format: biochemical; conditions: microsomes from HEK2 cells stably transfected with CYP17; 3H-Pregnenolone 1 uM, NADPH 2 mM; 45 minutes at room temperature
T1 construct: expressed in transfected cells; host or cells: HEK2 (sic); microsomes prepared as a high-speed pellet
T1 sequence (P05093 1-508): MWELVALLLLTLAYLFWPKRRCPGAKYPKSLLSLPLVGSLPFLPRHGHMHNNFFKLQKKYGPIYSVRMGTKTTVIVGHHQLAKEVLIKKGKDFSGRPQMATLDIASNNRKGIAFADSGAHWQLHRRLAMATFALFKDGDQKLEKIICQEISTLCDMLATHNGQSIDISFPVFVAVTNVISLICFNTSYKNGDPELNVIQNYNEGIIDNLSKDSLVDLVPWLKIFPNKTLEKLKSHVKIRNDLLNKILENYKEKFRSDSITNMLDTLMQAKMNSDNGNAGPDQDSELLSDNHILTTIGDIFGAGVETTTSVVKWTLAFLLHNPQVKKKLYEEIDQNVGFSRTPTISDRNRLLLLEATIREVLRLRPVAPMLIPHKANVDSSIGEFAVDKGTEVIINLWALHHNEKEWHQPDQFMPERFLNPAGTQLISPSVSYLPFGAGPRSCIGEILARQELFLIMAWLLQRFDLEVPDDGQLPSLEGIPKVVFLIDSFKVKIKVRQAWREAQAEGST
Description: The assays were performed in U-bottom 384-well optiplates. The final assay volume was 15 μl prepared from 7.5 μl additions of microsomes (prepared as a high-speed pellet from homogenized HEK2 cells stably transfected with CYP17), substrates (3 H-Pregnenolone and NADPH) and test compounds in assay buffer (50 mM Potassium phosphate pH 7.2, 10% glycerol). The reaction was initiated by the combination of the microsomes and substrates in wells containing compound. The reaction was incubated at room temperature for 45 minutes and terminated by adding 7.5 μl of 0.2N HCl to each well. Following an incubation period of 10 minutes, anti-DHEA-coated SPA beads were added to the terminated reaction. The plate was sealed and incubated overnight with shaking at 4° C. The beads were allowed to settle in the plate for 1 hour and the plate read on a Topcount (Perkin-Elmer) plate reader.
Inhibition data were calculated by comparison to no enzyme control reactions for 100% inhibition and vehicle-only reactions for 0% inhibition. The final concentration of reagents in the assays are NADPH, 2 mM; 3H-Pregnenolone, 1 uM; microsomes, 1.25 ug/ml; Anti-DHEA-SPA beads (0.125 mg/well) in 0.5% Triton X-100 and DMSO, 0.05%. Dose response curves were generated to determine the concentration required inhibiting 50% of enzyme activity (IC50). Compounds were dissolved at 10 mM in dimethylsulfoxide (DMSO) and evaluated at eleven concentrations, each in duplicate. IC50 values were derived by non-linear regression analysis.
Table 5 below lists the IC50 values for the following examples of this invention measured in the Total CYP17 SPA Assay hereinabove.

cynomolgus monkeys = assay: 1-Day Cyno PK/PD Study; format: in vivo, cynomolgus monkey; conditions: plasma, single oral dose 1 mg/Kg in 80% PEG-400/water, monitored over 24 hours
Description: Example 67 was formulated in 80% PEG-400/water at a volume of 1 mL/kg of monkey at a dose of 1 mg/kg. The formulation was then dosed orally at time=0 hours and blood samples were taken over a 24 hour period to monitor for drug exposure and testosterone levels. (♦) Example 67 (nM); (▪) testosterone (ng/dL).
• Animals: All procedures involving animals and their care were conducted in conformity with the guidelines that are in compliance with the Bristol-Myers Squibb Institutional Animal Care and Use Committee. Fully mature male cynomolgus monkeys (>4 yrs of age; 5-6 kg) were from an in-house colony. All the monkeys used had chronically implanted femoral vein access ports. For oral studies, all animals were fasted overnight prior to dosing and were fed 4 hr after dosing. […] The plasma fraction was immediately separated by centrifugation (14,000 rpm, 10 min, 4° C.), frozen on dry ice, and stored at −20° C. until the samples were analyzed. • Analysis of Tested Compound: Plasma samples were thawed and treated with two volumes of acetonitrile containing internal standard. After centrifugation to remove precipitated proteins, an aliquot of supernatant was analyzed by LC/MS/MS. […]

Compound	IC50 (Human CYP17)	testosterone levels (cynomolgus monkeys)
Cc1ncncc1-c1ccnc2c1cnn2-c1ccc(F)cc1F [Example 64, 1-(2,4-difluorophenyl)-4-(4-methylpyrimidin-5-yl)-1H-pyrazolo[3,4-b]pyridine]	0.015 µM	
Cc1ccncc1-c1ccnc2c1cnn2-c1ccc(C(F)(F)F)cn1 [Example 39, 4-(4-methylpyridin-3-yl)-1-(5-(trifluoromethyl)pyridin-2-yl)-1H-pyrazolo[3,4-b]pyridine]	0.1 µM	
Cc1ccncc1-c1ccnc2c1cnn2C1CCOCC1 [Example 33, 4-(4-methylpyridin-3-yl)-1-(tetrahydro-2H-pyran-4-yl)-1H-pyrazolo[3,4-b]pyridine]	0.393 µM	
Nc1ncncc1-c1ccnc2c1cnn2-c1ccc(F)c(F)c1F [Example 70, 5-(1-(2,3,4-trifluorophenyl)-1H-pyrazolo[3,4-b]pyridin-4-yl)pyrimidin-4-amine]	0.105 µM	
Nc1ncncc1-c1ccnc2c1cnn2-c1ccccn1 [Example 72, 5-(1-(pyridin-2-yl)-1H-pyrazolo[3,4-b]pyridin-4-yl)pyrimidin-4-amine]	0.525 µM	
Cc1ccncc1-c1ccnc2c1cnn2Cc1c(F)cccc1Cl [Example 55, 1-(2-chloro-6-fluorobenzyl)-4-(4-methylpyridin-3-yl)-1H-pyrazolo[3,4-b]pyridine]	0.807 µM	
Nc1ncncc1-c1ccnc2c1cnn2-c1ccc(F)cc1 [Example 8, 5-(1-(4-fluorophenyl)-1H-pyrazolo[3,4-b]pyridin-4-yl)pyrimidin-4-amine]	0.023 µM	
OC1(c2ccncc2-c2ccnc3c2cnn3-c2ccc(F)cc2)COC1 [Example 9, 3-(3-(1-(4-fluorophenyl)-1H-pyrazolo[3,4-b]pyridin-4-yl)pyridin-4-yl)oxetan-3-ol]	0.0059 µM	
Nc1ncncc1-c1ccnc2c1cnn2-c1ccc(F)cc1F [Example 67, 5-(1-(2,4-difluorophenyl)-1H-pyrazolo[3,4-b]pyridin-4-yl)pyrimidin-4-amine]	0.0058 µM	~30 ng/dL
Cc1ncncc1-c1ccnc2c1cnn2-c1ccc(F)cc1 [Example 2, 1-(4-fluorophenyl)-4-(4-methylpyrimidin-5-yl)-1H-pyrazolo[3,4-b]pyridine]	0.186 µM	
Cc1ccncc1-c1ccnc2c1cnn2-c1ncccc1Br [Example 46, 1-(3-bromopyridin-2-yl)-4-(4-methylpyridin-3-yl)-1H-pyrazolo[3,4-b]pyridine]	0.01 µM	

Second part, led by results:

IC50 (Human CYP17)	Compound	testosterone levels (cynomolgus monkeys)
0.32 µM	Fc1ccc(-n2ncc3c(-c4cncnc4C(F)(F)F)ccnc32)cc1F [Example 100, 1-(3,4-difluorophenyl)-4-(4-(trifluoromethyl)-5-pyrimidinyl)-1H-pyrazolo[3,4-b]pyridine]	
0.622 µM	Cc1csc(-n2ncc3c(-c4cnccc4C)ccnc32)n1 [Example 88, 4-methyl-2-(4-(4-methylpyridin-3-yl)-1H-pyrazolo[3,4-b]pyridin-1-yl)thiazole]	
0.704 µM	Nc1ncncc1-c1ccnc2c1cnn2-c1ccc(F)c(Cl)c1 [Example 96, 5-(1-(3-chloro-4-fluorophenyl)-1H-pyrazolo[3,4-b]pyridin-4-yl)-4-pyrimidinamine]	
0.159 µM	Fc1ccc(-n2ncc3c(-c4cncnc4C(F)(F)F)ccnc32)c(F)c1 [Example 93, 1-(2,4-difluorophenyl)-4-(4-(trifluoromethyl)pyrimidin-5-yl)-1H-pyrazolo[3,4-b]pyridine]	
0.089 µM	Cc1ccncc1-c1ccnc2c1cnn2CC(F)(F)F [Example 84, 4-(4-methylpyridin-3-yl)-1-(2,2,2-trifluoroethyl)-1H-pyrazolo[3,4-b]pyridine]	
0.018 µM	Cc1ccncc1-c1ccnc2c1cnn2-c1cccc(S(N)(=O)=O)c1 [Example 80, 3-(4-(4-methylpyridin-3-yl)-1H-pyrazolo[3,4-b]pyridin-1-yl)benzenesulfonamide]	
0.123 µM	Fc1ccc(-n2ncc3c(-c4cncnc4OCC(F)(F)F)ccnc32)cc1 [Example 106, 1-(4-fluorophenyl)-4-(4-(2,2,2-trifluoroethoxy)pyrimidin-5-yl)-1H-pyrazolo[3,4-b]pyridine]	
